{
  "source": "patent US20260364214A1",
  "about": "“MULTIVALENT FIBROBLAST ACTIVATION PROTEIN LIGANDS FOR TARGETED DELIVERY APPLICATIONS” (Philochem AG, priority 2022, published 2026)",
  "test_system": "SK-RC-52.hFAP tumors",
  "assay": "Quantitative biodistribution in SK-RC-52.hFAP tumor bearing mice",
  "type": "in vivo, mouse (female athymic Balb/c AnNRj-Foxn1)",
  "settings": "i.v. 250 nmol/kg, 50 MBq/kg",
  "method": "SK-RC-52.hFAP were grown to 80% confluence in RPMI-1640 with 10% fetal bovine serum (FBS) and 1% antibiotic-antimycotic and detached with Trypsin-EDTA (ethylenediaminetetraacetic acid) 0.05%. Tumor cells were resuspended in Hanks' Balanced Salt Solution medium. Aliquots of 5 million cells (100 μL of suspension) were injected subcutaneously in the right flank of female athymic Balb/c AnNRj-Foxn1 mice (6 to 8 wk of age).\nRadiolabeling of ESV6-DOTAGA, Bi-ESV6-DOTAGA, Tri-ESV6-DOTAGA, Tetra-ESV6-DOTAGA, Hexa-ESV6-DOTAGA, Octa-ESV6-DOTAGA and FAP-2286 with lutetium-177 (a therapeutic radionuclide) was performed with different specific activities for three different studies (biodistribution, therapy and dose optimization).\nPrior to the biodistribution study, precursors (100 nmol) were dissolved in 100 μL of milliQ water and diluted with 200 μL of sodium acetate (1 M in water, pH=4.5). 20 MBq of ^177Lu solution were added and the mixture was heated at 90 °C for 10 minutes, followed by dilution with […] of PBS to achieve final volume of 2 mL (20 doses of 100 μL each).\nESV6-DOTAGA, Bi-ESV6-DOTAGA, Tri-ESV6-DOTAGA, Tetra-ESV6-DOTAGA, Hexa-ESV6-DOTAGA, Octa-ESV6-DOTAGA and FAP-2286 were radiolabeled with ^177Lu as described above. Tumors were allowed to grow to an average volume of 300 mm^3. Mice were randomized and injected intravenously with radiolabeled preparations of ^177Lu-ESV6, ^177Lu-Bi-ESV6, ^177Lu-Tri-ESV6, Tetra-ESV6-DOTAGA, Hexa-ESV6-DOTAGA, Octa-ESV6-DOTAGA or ^177Lu-FAP-2286 (250 nmol/kg; 50 MBq/kg). Mice were euthanized at different time-points after the intravenous injection by CO2 asphyxiation. Tumors, organs, and blood were collected, weighted, and radioactivity was measured with a Packard Cobra Gamma Counter. Values are expressed as percent ID/g±SD [FIG. 4]. The % ID/g in the tumors was corrected considering the SK-RC-52.hFAP tumor growth rate.\nQuantitative in vivo biodistribution of ^177Lu-ESV6-DOTAGA, ^177Lu-Bi-ESV6-DOTAGA, ^177Lu-Tri-ESV6-DOTAGA, ^177Lu-FAP-2286, Tetra-ESV6-DOTAGA, Hexa-ESV6-DOTAGA and Octa-ESV6-DOTAGA at different time points after intravenous administration (250 nmol/kg, 50 MBq/kg) in mice bearing SK-RC-52.hFAP tumors, are shown in Tables 1 to 4 and 10 to 12. Data are reported as % ID/g±standard deviation.\nTumor-to-organ ratios of ^177Lu-ESV6-DOTAGA, ^177Lu-Bi-ESV6-DOTAGA, ^177Lu-Tri-ESV6-DOTAGA, ^177Lu-FAP-2286, Tetra-ESV6-DOTAGA, Hexa-ESV6-DOTAGA and Octa-ESV6-DOTAGA, at different time points after intravenous administration (250 nmol/kg, 50 MBq/kg) in mice bearing SK-RC-52.hFAP tumors, are shown in Tables 5 to 8 and 13 to 15. Avg.=average; Std.d=standard deviation.",
  "data": [
    {"smiles": "N#C[C@@H]1CC(F)(F)CN1C(=O)CNC(=O)c1ccnc2c(NC(=O)CCC(=O)NCCNC(=O)CCOCC(COCCC(=O)NCCNC(=O)CCC(=O)Nc3cccc4c(C(=O)NCC(=O)N5CC(F)(F)C[C@H]5C#N)ccnc34)NC(=O)CCOCC(COCCC(=O)NC(COCCC(=O)NCCNC(=O)CCC(=O)Nc3cccc4c(C(=O)NCC(=O)N5CC(F)(F)C[C@H]5C#N)ccnc34)COCCC(=O)NCCNC(=O)CCC(=O)Nc3cccc4c(C(=O)NCC(=O)N5CC(F)(F)C[C@H]5C#N)ccnc34)NC(=O)CCC(C(=O)O)N3CCN(CC(=O)[O-])CCN(CC(=O)[O-])CCN(CC(=O)[O-])CC3)cccc12.[177Lu+3]", "note": "(stereo partly drawn) [^177Lu-Tetra-ESV6-DOTAGA]", "values": [
      {"measurement": "Tumor to organs ratio, Blood", "setting": "6 h", "value": 53.01},
      {"measurement": "Injected dose per gram, Blood", "setting": "6 h post injection", "value": 1.16, "unit": "% ID/g"},
      {"measurement": "Tumor to organs ratio, Blood", "setting": "24 h", "value": 146.80},
      {"measurement": "Injected dose per gram, Blood", "setting": "24 h post injection", "value": 0.29, "unit": "% ID/g"},
      {"measurement": "Tumor to organs ratio, Blood", "setting": "96 h", "value": 1062.04},
      {"measurement": "Injected dose per gram, Blood", "setting": "96 h post injection", "value": 0.01, "unit": "% ID/g"},
      {"measurement": "Tumor to organs ratio, Heart", "setting": "6 h", "value": 114.60},
      {"measurement": "Injected dose per gram, Heart", "setting": "6 h post injection", "value": 0.50, "unit": "% ID/g"},
      {"measurement": "Tumor to organs ratio, Heart", "setting": "24 h", "value": 166.10},
      {"measurement": "Injected dose per gram, Heart", "setting": "24 h post injection", "value": 0.26, "unit": "% ID/g"},
      {"measurement": "Tumor to organs ratio, Heart", "setting": "96 h", "value": 133.14},
      {"measurement": "Injected dose per gram, Heart", "setting": "96 h post injection", "value": 0.12, "unit": "% ID/g"},
      {"measurement": "Tumor to organs ratio, Intestine", "setting": "6 h", "value": 86.50},
      {"measurement": "Injected dose per gram, Intestine", "setting": "6 h post injection", "value": 0.70, "unit": "% ID/g"},
      {"measurement": "Tumor to organs ratio, Intestine", "setting": "24 h", "value": 284.15},
      {"measurement": "Injected dose per gram, Intestine", "setting": "24 h post injection", "value": 0.15, "unit": "% ID/g"},
      {"measurement": "Tumor to organs ratio, Intestine", "setting": "96 h", "value": 213.10},
      {"measurement": "Injected dose per gram, Intestine", "setting": "96 h post injection", "value": 0.07, "unit": "% ID/g"},
      {"measurement": "Tumor to organs ratio, Kidney", "setting": "6 h", "value": 27.69},
      {"measurement": "Injected dose per gram, Kidney", "setting": "6 h post injection", "value": 2.10, "unit": "% ID/g"},
      {"measurement": "Tumor to organs ratio, Kidney", "setting": "24 h", "value": 23.62},
      {"measurement": "Injected dose per gram, Kidney", "setting": "24 h post injection", "value": 1.79, "unit": "% ID/g"},
      {"measurement": "Tumor to organs ratio, Kidney", "setting": "96 h", "value": 2.36},
      {"measurement": "Injected dose per gram, Kidney", "setting": "96 h post injection", "value": 5.77, "unit": "% ID/g"},
      {"measurement": "Tumor to organs ratio, Liver", "setting": "6 h", "value": 15.19},
      {"measurement": "Injected dose per gram, Liver", "setting": "6 h post injection", "value": 3.81, "unit": "% ID/g"},
      {"measurement": "Tumor to organs ratio, Liver", "setting": "24 h", "value": 9.42},
      {"measurement": "Injected dose per gram, Liver", "setting": "24 h post injection", "value": 4.52, "unit": "% ID/g"},
      {"measurement": "Tumor to organs ratio, Liver", "setting": "96 h", "value": 2.07},
      {"measurement": "Injected dose per gram, Liver", "setting": "96 h post injection", "value": 6.64, "unit": "% ID/g"},
      {"measurement": "Tumor to organs ratio, Lung", "setting": "6 h", "value": 52.76},
      {"measurement": "Injected dose per gram, Lung", "setting": "6 h post injection", "value": 1.09, "unit": "% ID/g"},
      {"measurement": "Tumor to organs ratio, Lung", "setting": "24 h", "value": 138.32},
      {"measurement": "Injected dose per gram, Lung", "setting": "24 h post injection", "value": 0.35, "unit": "% ID/g"},
      {"measurement": "Tumor to organs ratio, Lung", "setting": "96 h", "value": 69.86},
      {"measurement": "Injected dose per gram, Lung", "setting": "96 h post injection", "value": 0.24, "unit": "% ID/g"},
      {"measurement": "Tumor to organs ratio, Muscle", "setting": "6 h", "value": 61.99},
      {"measurement": "Injected dose per gram, Muscle", "setting": "6 h post injection", "value": 0.94, "unit": "% ID/g"},
      {"measurement": "Tumor to organs ratio, Muscle", "setting": "24 h", "value": 98.07},
      {"measurement": "Injected dose per gram, Muscle", "setting": "24 h post injection", "value": 0.44, "unit": "% ID/g"},
      {"measurement": "Tumor to organs ratio, Muscle", "setting": "96 h", "value": 288.08},
      {"measurement": "Injected dose per gram, Muscle", "setting": "96 h post injection", "value": 0.06, "unit": "% ID/g"},
      {"measurement": "Tumor to organs ratio, Spleen", "setting": "6 h", "value": 44.00},
      {"measurement": "Injected dose per gram, Spleen", "setting": "6 h post injection", "value": 1.33, "unit": "% ID/g"},
      {"measurement": "Tumor to organs ratio, Spleen", "setting": "24 h", "value": 20.72},
      {"measurement": "Injected dose per gram, Spleen", "setting": "24 h post injection", "value": 2.19, "unit": "% ID/g"},
      {"measurement": "Tumor to organs ratio, Spleen", "setting": "96 h", "value": 3.88},
      {"measurement": "Injected dose per gram, Spleen", "setting": "96 h post injection", "value": 3.64, "unit": "% ID/g"},
      {"measurement": "Tumor to organs ratio, Tail", "setting": "6 h", "value": 24.06},
      {"measurement": "Injected dose per gram, Tail", "setting": "6 h post injection", "value": 1.85, "unit": "% ID/g"},
      {"measurement": "Tumor to organs ratio, Tail", "setting": "24 h", "value": 36.71},
      {"measurement": "Injected dose per gram, Tail", "setting": "24 h post injection", "value": 1.16, "unit": "% ID/g"},
      {"measurement": "Tumor to organs ratio, Tail", "setting": "96 h", "value": 24.96},
      {"measurement": "Injected dose per gram, Tail", "setting": "96 h post injection", "value": 0.54, "unit": "% ID/g"},
      {"measurement": "Injected dose per gram, Tumor", "setting": "6 h post injection", "value": 57.25, "unit": "% ID/g"},
      {"measurement": "Injected dose per gram, Tumor", "setting": "24 h post injection", "value": 42.15, "unit": "% ID/g"},
      {"measurement": "Injected dose per gram, Tumor", "setting": "96 h post injection", "value": 13.36, "unit": "% ID/g"}
    ]}
  ]
}
